Results from article PMC3813752 (PLoS ONE, 2013).
Entries after “also recorded” stand apart in the source; their conditions may differ. Where two headings read alike, the source gives them in different places. Marks after values point to notes of the source that are not given here.

Experiments:
human GPR18 [1] = target: T1, human GPR18 (Homo sapiens, UniProt Q14330); settings: for functional property at GPR18 (agonist/antagonist): in words; for agonist effect on β-arrestin recruitment at GPR18: test compound 10 µM, related to effect of Δ9-THC 10 µM = 100%
T1 sequence (Q14330 1-331): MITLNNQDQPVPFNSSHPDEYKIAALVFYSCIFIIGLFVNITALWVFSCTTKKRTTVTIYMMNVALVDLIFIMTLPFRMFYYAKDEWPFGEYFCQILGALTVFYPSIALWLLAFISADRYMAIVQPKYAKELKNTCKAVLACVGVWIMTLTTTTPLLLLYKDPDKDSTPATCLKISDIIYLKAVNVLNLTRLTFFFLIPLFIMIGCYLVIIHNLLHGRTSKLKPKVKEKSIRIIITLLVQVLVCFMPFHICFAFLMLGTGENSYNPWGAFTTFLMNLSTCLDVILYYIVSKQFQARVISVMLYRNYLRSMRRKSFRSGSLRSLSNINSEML

human GPR55 = human GPR55 (Homo sapiens, UniProt Q9Y2T6); assay: β-arrestin recruitment assay (PathHunter), CHO cells expressing GPR55; settings: for inhibition at 10 µM: CHO; for IC50: antagonist mode vs. LPI (1 µM); for functional property at GPR55 (agonist/antagonist): in words; for agonist effect on β-arrestin recruitment at GPR55: test compound 10 µM, related to effect of LPI 1 µM = 100%
Sequence of human GPR55 (Q9Y2T6 whole entry): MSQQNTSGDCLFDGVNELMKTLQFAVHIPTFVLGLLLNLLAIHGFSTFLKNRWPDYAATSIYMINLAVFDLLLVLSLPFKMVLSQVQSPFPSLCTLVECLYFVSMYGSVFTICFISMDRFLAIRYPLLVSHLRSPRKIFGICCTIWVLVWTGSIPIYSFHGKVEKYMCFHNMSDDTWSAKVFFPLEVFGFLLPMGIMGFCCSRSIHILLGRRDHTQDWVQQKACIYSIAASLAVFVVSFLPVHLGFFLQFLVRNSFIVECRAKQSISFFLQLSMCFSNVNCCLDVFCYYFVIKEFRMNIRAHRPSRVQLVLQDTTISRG

human CB2 receptor [2] = target: T2, human CB2 receptor (Homo sapiens, UniProt P34972); assay: cAMP accumulation assay, CHO cells expressing CB2; type: cell-based; settings: for functional property at CB2 (agonist/antagonist): in words, standard ligands partly from the literature
T2 sequence (P34972 whole entry): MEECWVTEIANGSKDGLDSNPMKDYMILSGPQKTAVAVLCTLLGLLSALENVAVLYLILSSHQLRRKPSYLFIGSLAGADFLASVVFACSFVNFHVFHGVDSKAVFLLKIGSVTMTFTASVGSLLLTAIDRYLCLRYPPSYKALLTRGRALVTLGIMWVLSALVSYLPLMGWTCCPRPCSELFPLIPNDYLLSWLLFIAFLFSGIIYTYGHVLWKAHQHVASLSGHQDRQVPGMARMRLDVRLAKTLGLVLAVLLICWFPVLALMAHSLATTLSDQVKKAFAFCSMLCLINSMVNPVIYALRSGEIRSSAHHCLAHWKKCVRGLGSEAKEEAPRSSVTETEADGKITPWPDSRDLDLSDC

human GPR18 [3] = target: T1, human GPR18; assay: cell-based; settings: for inhibition at 10 µM: CHO, read-out: % inhibition of Δ9-THC (10 µM)-induced β-arrestin recruitment at GPR18, test compound at 10 µM; for IC50: GPR18 IC50, β-arrestin recruitment, antagonist mode vs. Δ9-THC (10 µM)
human CB1 receptor [4] = target: T3, human CB1 receptor (Homo sapiens, UniProt P21554); assay: cAMP accumulation assay, CHO cells expressing CB1; type: cell-based
T3 sequence (P21554 whole entry): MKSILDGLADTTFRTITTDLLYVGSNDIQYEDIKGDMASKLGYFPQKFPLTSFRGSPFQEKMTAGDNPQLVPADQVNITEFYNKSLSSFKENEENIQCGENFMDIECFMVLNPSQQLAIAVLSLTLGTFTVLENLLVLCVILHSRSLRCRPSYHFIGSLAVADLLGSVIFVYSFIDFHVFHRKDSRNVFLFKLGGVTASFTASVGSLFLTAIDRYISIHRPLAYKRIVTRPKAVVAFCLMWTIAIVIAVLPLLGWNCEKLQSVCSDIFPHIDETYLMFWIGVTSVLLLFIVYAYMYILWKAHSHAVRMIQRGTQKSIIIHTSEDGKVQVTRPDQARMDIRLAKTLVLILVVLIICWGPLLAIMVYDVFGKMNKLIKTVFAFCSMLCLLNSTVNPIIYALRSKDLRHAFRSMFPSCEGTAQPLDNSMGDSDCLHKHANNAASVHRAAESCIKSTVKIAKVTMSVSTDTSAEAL

human CB2 receptor [5] = target: T2, human CB2 receptor; assay: Radioligand binding (heterologous competition) vs. [3H]CP55,940 at CB2; settings: for Ki: three independent experiments in duplicates
human CB1 receptor [6] = target: T3, human CB1 receptor; assay: biochemical; type: binding; settings: for Ki: membranes of CHO cells expressing human CB1, three independent experiments in duplicates, read-out: Ki CB1, heterologous competition vs. [3H]CP55,940
[7] = read-out: % inhibition of LPI (1 µM)-induced β-arrestin recruitment at GPR55
[8] = GPR55 IC50, β-arrestin recruitment
[9] = read-out: % inhibition of LPI (1 µM)-induced β-arrestin recruitment at GPR55, test compound at 10 µM
[10] = in words, standard ligands partly from the literature
[11] = membranes of CHO cells expressing human CB2, read-out: Ki CB2, heterologous competition vs. [3H]CP55,940
[12] = at 10 µM, compared to max. effect of full agonist CP55,940 (1 µM) = 100%

| Compound | functional property at GPR18 (agonist/antagonist) (human GPR18 [1]) | agonist effect on β-arrestin recruitment at GPR18 (human GPR18 [1]) | EC50 (human GPR55) | inhibition at 10 µM (human GPR55; [7]) | IC50 (human GPR55; [8]) | functional property at GPR55 (agonist/antagonist) (human GPR55) | agonist effect on β-arrestin recruitment at GPR55 (human GPR55) | functional property at CB2 (agonist/antagonist) (human CB2 receptor [2]) | EC50 (human GPR18 [3]) | inhibition at 10 µM (human GPR18 [3]) | IC50 (human GPR18 [3]) | inhibition at 10 µM (human GPR55; [9]) | Ki (human CB2 receptor [5]; [11]) | Ki (human CB1 receptor [6]) | also measured |
| --- | --- | --- | --- | --- | --- | --- | --- | --- | --- | --- | --- | --- | --- | --- | --- |
| CCCCCCC(C)(C)c1ccc(C2CC(O)CCC2CCCO)c(O)c1 (single isomer, unassigned; (-)) [Compound 4, (-)-cis-3-[2-hydroxy-4-(1,1-dimethylheptyl)phenyl]-trans-4-(3-hydroxypropyl)cyclohexanol, reference compound] | inverse agonistic activity; also recorded: antagonist | 0% | > 10 µM | 93% | 1.61 ± 0.47 µM | antagonistic activity; also recorded: antagonist | 4% | agonist | > 10 µM | 188% | 5.99 ± 1.88 µM | – | – | – | functional property at CB1 (agonist/antagonist) (human CB1 receptor [4]): agonist |
| CCCCCc1cc(O)c2c(c1)OC(C)(C)[C@@H]1CCC(C)=C[C@@H]21 [Compound 1, Δ^9-tetrahydrocannabinol, reference compound] | agonist | – | > 10 µM | 65% | – | antagonist | 0% | agonist | – | 0% | > 10 µM | – | – | – | EC50 (human GPR18 [1]; read-out: GPR18 EC50, β-arrestin recruitment, agonist mode): 4.61 ± 0.5 µM; IC50 (human GPR55; read-out: GPR55 IC50, β-arrestin recruitment): 14.2 ± 5.4 µM |
| Cc1c(C(=O)NN2CCCCC2)nn(-c2ccc(Cl)cc2Cl)c1-c1ccc(Cl)cc1 [Compound 5, rimonabant, reference compound] | antagonist | 0% | – | 0% | > 10 µM | agonist | – | antagonist | > 10 µM | 94% | – | – | – | – | IC50 (human GPR18 [1]; read-out: GPR18 IC50, β-arrestin recruitment, antagonist mode vs. Δ9-THC (10 µM)): 10.1 ± 1.3 µM; EC50 (human GPR55; read-out: GPR55 EC50, β-arrestin recruitment, agonist mode): 2.01 ± 0.66 µM |
| COc1ccc(-c2oc3cc(OC)ccc3c2C(=O)c2ccc(C#N)cc2)cc1 [Compound 6, reference compound] | antagonist | 0% | > 10 µM | – | 4.14 ± 1.05 µM | antagonist | 0% | antagonist | > 10 µM | 81% | 4.97 ± 1.51 µM | 81% | – | – | functional property at CB1 (agonist/antagonist) (human CB1 receptor [4]; [10]): antagonist |
| COc1ccc(C(=O)c2c(C)n(CCN3CCOCC3)c3cc(I)ccc23)cc1 [Compound 7, reference compound] | antagonist | 0% | > 10 µM | 48% | ≥ 10 µM | antagonist | 22% | antagonist | > 10 µM | 52% | ~10 µM | – | – | – | functional property at CB1 (agonist/antagonist) (human CB1 receptor [4]; [10]): agonist |
| CCCc1ccc(O)c(-c2cc(CCC)ccc2O)c1 [Compound 12, tetrahydromagnolol] | antagonist | 0% | > 10 µM | 96% | 13.2 ± 4 µM | antagonist | 24% | agonist | > 10 µM | 64% | 30.9 ± 15.8 µM | – | – | – | functional property at CB1 (agonist/antagonist) (human CB1 receptor [4]; [10]): agonist |
| CCCCCc1ccc(O)c(-c2cc(C)ccc2O)c1 [Compound 52] | – | 0% | > 10 µM | – | > 10 µM | – | 9% | – | > 10 µM | 45% | ~10 µM | 0% | 0.517 ± 0.101 µM | 1.23 ± 0.47 µM | – |
| CCCCCCc1ccc(O)c(-c2cc(C)ccc2O)c1 [Compound 53] | – | 0% | > 10 µM | – | > 10 µM | – | 28% | – | > 10 µM | 118% | 11.5 ± 1.3 µM | 0% | 0.273 ± 0.096 µM | 0.822 ± 0.224 µM | – |
| CCCc1ccc(O)c(-c2cc(CC)ccc2O)c1 [Compound 54] | – | 0% | > 10 µM | – | > 10 µM | – | 0% | – | > 10 µM | 67% | 10.5 ± 0.9 µM | 19% | 0.856 ± 0.367 µM | ~1 µM | inhibition at 10 µM (human CB1 receptor [6]; at 10 µM, vs. [3H]CP55,940, read-out: % inhibition of radioligand binding at CB1): 43% |
| CCCCc1ccc(O)c(-c2cc(CC)ccc2O)c1 [Compound 55] | – | 0% | > 10 µM | – | > 10 µM | – | 2% | – | > 10 µM | 40% | ~10 µM | 18% | 0.235 ± 0.101 µM | 5.76 ± 2.85 µM | selectivity for CB2 receptors over CB1 (human CB2 receptor [5]; from Ki values): ~25 fold |
| CCCCCc1ccc(O)c(-c2cc(CC)ccc2O)c1 [Compound 56] | – | 0% | > 10 µM | – | > 10 µM | – | 3% | – | > 10 µM | 95% | 13.6 ± 0.7 µM | 2% | 0.161 ± 0.033 µM | 0.634 ± 0.297 µM | – |
| CCCCCCc1ccc(O)c(-c2cc(CC)ccc2O)c1 [Compound 57] | – | 0% | > 10 µM | – | > 10 µM | – | – | – | > 10 µM | 113% | 12.5 ± 0.8 µM | 0% | – | 0.386 ± 0.029 µM | Ki (human CB2 receptor [5]; Ki CB2, heterologous competition vs. [3H]CP55,940, membranes of CHO cells expressing human CB2): 0.083 ± 0.0118 µM |
| CCCCc1ccc(O)c(-c2cc(CCC)ccc2O)c1 [Compound 58] | – | 0% | > 10 µM | – | ~10 µM | – | 21% | – | > 10 µM | 104% | 13.5 ± 1.7 µM | 44% | 0.468 ± 0.133 µM | 3.61 ± 0.17 µM | – |
| CCCc1ccc(O)c(-c2cc(C(C)(C)C)ccc2O)c1 [Compound 59] | – | 0% | > 10 µM | – | ~10 µM | – | 0% | – | > 10 µM | 54% | ~10 µM | 54% | 0.489 ± 0.049 µM | 5.81 ± 2.67 µM | – |
| CCCCCCCc1ccc(O)c(-c2cc(CCC)ccc2O)c1 [Compound 62] | – | 0% | > 10 µM | – | > 10 µM | – | 5% | – | > 10 µM | 123% | 10.6 ± 0.4 µM | 17% | – | – | efficacy CB2, cAMP accumulation assay (human CB2 receptor [2]; [12]): (57%)^b; efficacy CB1, cAMP accumulation assay (human CB1 receptor [4]; [12]): (110%)^b |
